Measurements: US8557272B2, “Device for local and/or regional delivery employing liquid formulations of therapeutic agents” (Cordis Corporation, priority 2004, dated 2013)

Columns and labels:
[1] = MVP randomized clinical trial, angiographic and clinical outcome; format: in vivo, human; conditions: probucol given alone, compared to placebo
Text: It was not possible to determine with angiography alone whether probucol acted via inhibition of tissue hyperplasia or improvement in vascular remodeling. […] In addition, the invention enables the skilled practitioner to use probucol in conjunction with other percutaneous coronary interventions such as stenting if it is deemed appropriate.
The present invention concerns the IVUS substudy from the MVP restenosis trial. MVP was a double-blind placebo-controlled randomized clinical trial with four study groups. The protocol was approved by the Montreal Heart Institute institutional review board. The MVP study design, inclusion and exclusion criteria have been previously described (N Engl J Med 1997; 365-372). Briefly, patients referred for elective coronary angioplasty were evaluated at least 30 days prior to their scheduled procedure. Eligible patients were asked to provide written informed consent. Patients were eligible if they were scheduled to undergo standard balloon angioplasty on at least one native coronary artery and had at least one de novo target lesion with luminal narrowing of fifty percent or more by caliper measurements.
Beginning thirty days prior to scheduled angioplasty, patients were randomly assigned to receive either probucol alone, multivitamins alone, the combination of probucol and multivitamins, or placebo. Probucol 500 mg or matched placebo was administered twice daily. The multivitamin complex, consisting of vitamin E 700 IU, vitamin C 500 mg and beta-carotene 30,000 IU, or matched placebo was also administered in one tablet twice daily. […] The sequence of contrast injections with the exact degree of angulation was recorded and used for every angiogram. Coronary arteriograms (pre-, post-procedure, and final follow-up) were analyzed together using the Coronary Measurement System (CMS), as previously reported. […] Patients were readmitted for follow-up coronary angiography at five to seven months. […]

[2] = MVP IVUS substudy after balloon angioplasty; format: in vivo, human
Text: Serial intravascular ultrasound (IVUS) examinations have been performed in a consecutive series of patients involved in the MVP trial. By providing tomographic views of coronary arteries with high resolution, IVUS allows quantitative assessment of changes in arterial lumen and wall dimensions. We were therefore able in this study to determine the pathophysiology of coronary restenosis after balloon angioplasty in patients systematically undergoing follow-up IVUS examination and determine the effect of probucol on tissue hyperplasia and vascular remodeling after coronary angioplasty. The present invention concerns the IVUS substudy from the MVP restenosis trial. […] Briefly, patients referred for elective coronary angioplasty were evaluated at least 30 days prior to their scheduled procedure. […] The sequence of contrast injections with the exact degree of angulation was recorded and used for every angiogram. Coronary arteriograms (pre-, post-procedure, and final follow-up) were analyzed together using the Coronary Measurement System (CMS), as previously reported. […] Patients were readmitted for follow-up coronary angiography at five to seven months. […] IVUS imaging was monitored by an experienced cardiologist, but the angioplasty operator was blinded to ultrasound results to avoid altering standard balloon angioplasty practice. […]

[3] = tested on: LDL; assay: LDL peroxidation lag phase ex vivo (diene conjugates after copper ions); set-up: species or system human; conditions: treatment for one month; preliminary results
Text: Dietary intervention and smoking habits were similar in all groups. Probucol may simply be a more powerful antioxidant than the combination of vitamins. To this regard, preliminary results from the continuous spectrophotometric monitoring of diene conjugates in LDL after the addition of copper ions to the isolated lipoprotein ex vivo (Free Radic Res Commun 1989; 6:67-75) of MVP patients are noteworthy.

What does the source list for `CC(C)(Sc1cc(C(C)(C)C)c(O)c(C(C)(C)C)c1)Sc1cc(C(C)(C)C)c(O)c(C(C)(C)C)c1` [probucol, 4,4′-([1-methylethylidene)bis(thio)]bis-[2,6-bis(1,1-dimethylethyl)phenol]]?
reduction of angiographic lumen loss [1]: sixty-eight percent; reduction of restenosis rate per segment [1]: forty-seven percent; reduction of the need for repeat angioplasty at 6 month [1]: fifty-eight percent; reduction in lumen loss assessed by IVUS ([2]; compared to non-probucol treated patients): 0.79 mm^2; reduction in lumen loss assessed by IVUS ([2]; probucol given alone compared to the placebo group only): 1.06 mm^2; protection against LDL oxidation (lag phase for LDL peroxidation) [3]: significantly greater protection against LDL oxidation than vitamins alone or the combination of probucol and vitamins
